Data as given in patent US20120329784A1, “COMPOUNDS AND METHODS” (priority 2010, published 2012).
Structures can show the parent of a compound that is named as a salt. Where two headings read alike, the source gives them in different places.

Molecular target: T1, Full length human TNNI3K (hTNNI3K) (Homo sapiens, UniProt Q59H18)
T1 construct: His-MBP-TEV-Full length human TNNI3K (hTNNI3K); His (N); MBP (N); TEV cleavage site (N); made in house; host or cells: baculovirus expression system (printed 'Baculokinase system')
T1 sequence (Q59H18 1-835): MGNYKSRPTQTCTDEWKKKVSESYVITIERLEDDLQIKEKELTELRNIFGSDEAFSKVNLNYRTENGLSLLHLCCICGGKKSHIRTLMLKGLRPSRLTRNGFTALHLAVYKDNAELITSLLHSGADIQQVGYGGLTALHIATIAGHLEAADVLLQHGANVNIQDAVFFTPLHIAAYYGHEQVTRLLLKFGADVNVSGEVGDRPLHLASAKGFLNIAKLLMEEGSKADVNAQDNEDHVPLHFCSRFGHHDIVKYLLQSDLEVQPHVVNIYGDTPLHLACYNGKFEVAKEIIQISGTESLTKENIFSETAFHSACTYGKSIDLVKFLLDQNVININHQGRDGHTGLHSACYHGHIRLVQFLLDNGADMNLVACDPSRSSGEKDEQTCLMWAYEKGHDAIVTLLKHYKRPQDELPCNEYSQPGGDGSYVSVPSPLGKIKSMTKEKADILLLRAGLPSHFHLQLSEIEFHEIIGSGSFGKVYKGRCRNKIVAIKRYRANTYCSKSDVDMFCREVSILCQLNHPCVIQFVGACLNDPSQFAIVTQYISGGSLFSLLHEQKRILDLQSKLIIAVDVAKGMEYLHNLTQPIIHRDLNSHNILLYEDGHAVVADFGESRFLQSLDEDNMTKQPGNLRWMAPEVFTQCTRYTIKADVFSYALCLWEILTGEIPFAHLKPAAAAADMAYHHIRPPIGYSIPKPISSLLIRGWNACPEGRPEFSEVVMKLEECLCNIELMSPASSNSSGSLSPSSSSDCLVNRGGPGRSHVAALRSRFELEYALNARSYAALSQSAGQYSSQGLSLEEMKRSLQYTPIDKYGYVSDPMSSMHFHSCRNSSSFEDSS
Assay: Fluorescent polarization assay of compound inhibition on hTNNI3K ATP binding (Biological Assay Method I)
Excerpt: Materials: His-MBP-TEV-Full length human TNNI3K (hTNNI3K) was expressed in Baculokinase system and purified from amylase affinity column followed by Superdex200. […] The preparation of this fluorescent ligand is disclosed in U.S. Provisional Patent Application No. 61/237,815 filed Aug. 28, 2009, the disclosure of which is incorporated by reference herein. The other buffer components, including MgCl2 (Catalog Number M1028), Bis-Tris (Catalog Number B7535), DTT (Catalog Number D9779) and Chaps (Catalog Number C3023) were purchased from Sigma-Aldrich.
A fluorescent polarization assay was used to determine does response of compound inhibition on hTNNI3K ATP binding. […]
Fifty (50) nL of inhibitors in DMSO (or DMSO controls) were stamped into a 384-well low volume Greiner black plate, followed by addition of 5 μL of Solution 1 to column 18 and 5 μL Solution 2 to columns 1-17 and 19-24 of the plate. […] After that, the fluorescent polarization was measured on Analyst (ex/em: 485/530 nm, Dichroic: 505). […]

| IC50 (mean of a minimum of 2 experiments, displacement of fluorescent ligand from hTNNI3K ATP binding pocket, 60 min at rt, read-out: pXC50 (the source's name) (converted)) [nM] | SMILES | IC50 [nM] |
| --- | --- | --- |
| ~100 | CNS(=O)(=O)c1cccc(Nc2cc(Nc3nc(C)co3)ncn2)c1 [Example 284, N-methyl-3-({6-[(4-methyl-1,3-oxazol-2-yl)amino]-4-pyrimidinyl}amino)benzenesulfonamide] | – |
| – | CNS(=O)(=O)c1cccc(Nc2cc(Nc3ccccc3)ncn2)c1 [Example 55, N-methyl-3-{[6-(phenylamino)-4-pyrimidinyl]amino}benzenesulfonamide trifluoroacetate] | ~100 |
